The NIST ThermoML archive (doi:10.1021/je500696p)

Columns and labels:
[1] = xn = mol fraction of the nth substance listed; settings: 100 kPa, Liquid, Vibrating tube method
[2] = excess molar enthalpy (molar enthalpy of mixing); xn = mol fraction of the nth substance listed; settings: 100 kPa, Liquid, Calvet calorimetry

CCCC[N+](C)(C)C.O=S(=O)([N-]S(=O)(=O)C(F)(F)F)C(F)(F)F [butyltrimethylammonium bis(trifluoromethylsulfonyl)imide] + CCCO
Settings | excess molar enthalpy [kcal/mol] | mass density [kg/m3]
[1], 293.15 K, x2 = 0 | – | 1397.1
[1], 293.15 K, x2 = 0.1273 | – | 1375
[1], 293.15 K, x2 = 0.2596 | – | 1346.9
[1], 293.15 K, x2 = 0.3787 | – | 1315
[1], 293.15 K, x2 = 0.4996 | – | 1273.9
[1], 293.15 K, x2 = 0.6368 | – | 1210.1
[1], 293.15 K, x2 = 0.7624 | – | 1126
[1], 293.15 K, x2 = 0.8787 | – | 1008.7
[1], 293.15 K, x2 = 0.9498 | – | 903.9
[1], 293.15 K, x2 = 0.9799 | – | 847.3
[1], 295.15 K, x2 = 0 | – | 1395.3
[1], 295.15 K, x2 = 0.1273 | – | 1373.2
[1], 295.15 K, x2 = 0.2596 | – | 1345.1
[1], 295.15 K, x2 = 0.3787 | – | 1313.2
[1], 295.15 K, x2 = 0.4996 | – | 1272.1
[1], 295.15 K, x2 = 0.6368 | – | 1208.3
[1], 295.15 K, x2 = 0.7624 | – | 1124.2
[1], 295.15 K, x2 = 0.8787 | – | 1006.9
[1], 295.15 K, x2 = 0.9498 | – | 902.2
[1], 295.15 K, x2 = 0.9799 | – | 845.7
[1], 298.15 K, x2 = 0 | – | 1392.7
[1], 298.15 K, x2 = 0.1273 | – | 1370.6
[1], 298.15 K, x2 = 0.2596 | – | 1342.4
[1], 298.15 K, x2 = 0.3787 | – | 1310.6
[1], 298.15 K, x2 = 0.4996 | – | 1269.4
[1], 298.15 K, x2 = 0.6368 | – | 1205.6
[1], 298.15 K, x2 = 0.7624 | – | 1121.4
[1], 298.15 K, x2 = 0.8787 | – | 1004.3
[1], 298.15 K, x2 = 0.9498 | – | 899.7
[1], 298.15 K, x2 = 0.9799 | – | 843.2
[1], 303.15 K, x2 = 0 | – | 1388.3
[1], 303.15 K, x2 = 0.1273 | – | 1366.2
[1], 303.15 K, x2 = 0.2596 | – | 1338
[1], 303.15 K, x2 = 0.3787 | – | 1306.1
[1], 303.15 K, x2 = 0.4996 | – | 1264.9
[1], 303.15 K, x2 = 0.6368 | – | 1201.1
[1], 303.15 K, x2 = 0.7624 | – | 1117
[1], 303.15 K, x2 = 0.8787 | – | 999.9
[1], 303.15 K, x2 = 0.9498 | – | 895.5
[1], 303.15 K, x2 = 0.9799 | – | 839.1
[1], 308.15 K, x2 = 0 | – | 1384
[1], 308.15 K, x2 = 0.1273 | – | 1361.8
[1], 308.15 K, x2 = 0.2596 | – | 1333.5
[1], 308.15 K, x2 = 0.3787 | – | 1301.6
[1], 308.15 K, x2 = 0.4996 | – | 1260.4
[1], 308.15 K, x2 = 0.6368 | – | 1196.5
[1], 308.15 K, x2 = 0.7624 | – | 1112.5
[1], 308.15 K, x2 = 0.8787 | – | 995.5
[1], 308.15 K, x2 = 0.9498 | – | 891.2
[1], 308.15 K, x2 = 0.9799 | – | 835
[1], 313.15 K, x2 = 0 | – | 1379.6
[1], 313.15 K, x2 = 0.1273 | – | 1357.4
[1], 313.15 K, x2 = 0.2596 | – | 1329.1
[1], 313.15 K, x2 = 0.3787 | – | 1297.2
[1], 313.15 K, x2 = 0.4996 | – | 1255.9
[1], 313.15 K, x2 = 0.6368 | – | 1192
[1], 313.15 K, x2 = 0.7624 | – | 1107.9
[1], 313.15 K, x2 = 0.8787 | – | 991.1
[1], 313.15 K, x2 = 0.9498 | – | 887
[1], 313.15 K, x2 = 0.9799 | – | 830.8
[1], 318.15 K, x2 = 0 | – | 1375.2
[1], 318.15 K, x2 = 0.1273 | – | 1353
[1], 318.15 K, x2 = 0.2596 | – | 1324.7
[1], 318.15 K, x2 = 0.3787 | – | 1292.7
[1], 318.15 K, x2 = 0.4996 | – | 1251.4
[1], 318.15 K, x2 = 0.6368 | – | 1187.4
[1], 318.15 K, x2 = 0.7624 | – | 1103.4
[1], 318.15 K, x2 = 0.8787 | – | 986.7
[1], 318.15 K, x2 = 0.9498 | – | 882.6
[1], 318.15 K, x2 = 0.9799 | – | 826.6
[1], 323.15 K, x2 = 0 | – | 1370.9
[1], 323.15 K, x2 = 0.1273 | – | 1348.6
[1], 323.15 K, x2 = 0.2596 | – | 1320.3
[1], 323.15 K, x2 = 0.3787 | – | 1288.2
[1], 323.15 K, x2 = 0.4996 | – | 1246.9
[1], 323.15 K, x2 = 0.6368 | – | 1182.9
[1], 323.15 K, x2 = 0.7624 | – | 1098.8
[1], 323.15 K, x2 = 0.8787 | – | 982.2
[1], 323.15 K, x2 = 0.9498 | – | 878.3
[1], 323.15 K, x2 = 0.9799 | – | 822.4
[1], 328.15 K, x2 = 0 | – | 1366.6
[1], 328.15 K, x2 = 0.1273 | – | 1344.3
[1], 328.15 K, x2 = 0.2596 | – | 1315.9
[1], 328.15 K, x2 = 0.3787 | – | 1283.8
[1], 328.15 K, x2 = 0.4996 | – | 1242.4
[1], 328.15 K, x2 = 0.6368 | – | 1178.3
[1], 328.15 K, x2 = 0.7624 | – | 1094.3
[1], 328.15 K, x2 = 0.8787 | – | 977.7
[1], 328.15 K, x2 = 0.9498 | – | 873.9
[1], 328.15 K, x2 = 0.9799 | – | 818
[1], 333.15 K, x2 = 0 | – | 1362.3
[1], 333.15 K, x2 = 0.1273 | – | 1339.9
[1], 333.15 K, x2 = 0.2596 | – | 1311.5
[1], 333.15 K, x2 = 0.3787 | – | 1279.4
[1], 333.15 K, x2 = 0.4996 | – | 1237.9
[1], 333.15 K, x2 = 0.6368 | – | 1173.8
[1], 333.15 K, x2 = 0.7624 | – | 1089.7
[1], 333.15 K, x2 = 0.8787 | – | 973.1
[1], 333.15 K, x2 = 0.9498 | – | 869.5
[1], 333.15 K, x2 = 0.9799 | – | 813.7
[2], 308.15 K, x2 = 0.1224 | 0.223 | –
[2], 308.15 K, x2 = 0.2622 | 0.436 | –
[2], 308.15 K, x2 = 0.2665 | 0.442 | –
[2], 308.15 K, x2 = 0.374 | 0.556 | –
[2], 308.15 K, x2 = 0.4927 | 0.622 | –
[2], 308.15 K, x2 = 0.5007 | 0.623 | –
[2], 308.15 K, x2 = 0.5108 | 0.627 | –
[2], 308.15 K, x2 = 0.5118 | 0.63 | –
[2], 308.15 K, x2 = 0.6191 | 0.606 | –
[2], 308.15 K, x2 = 0.744 | 0.532 | –
[2], 308.15 K, x2 = 0.7466 | 0.533 | –
[2], 308.15 K, x2 = 0.7505 | 0.521 | –
[2], 308.15 K, x2 = 0.8709 | 0.354 | –
[2], 313.15 K, x2 = 0.113 | 0.187 | –
[2], 313.15 K, x2 = 0.2393 | 0.374 | –
[2], 313.15 K, x2 = 0.2549 | 0.385 | –
[2], 313.15 K, x2 = 0.3933 | 0.518 | –
[2], 313.15 K, x2 = 0.4936 | 0.569 | –
[2], 313.15 K, x2 = 0.4959 | 0.567 | –
[2], 313.15 K, x2 = 0.499 | 0.568 | –
[2], 313.15 K, x2 = 0.6245 | 0.564 | –
[2], 313.15 K, x2 = 0.7406 | 0.507 | –
[2], 313.15 K, x2 = 0.8666 | 0.369 | –
[2], 323.15 K, x2 = 0.1187 | 0.185 | –
[2], 323.15 K, x2 = 0.2569 | 0.406 | –
[2], 323.15 K, x2 = 0.2694 | 0.422 | –
[2], 323.15 K, x2 = 0.3969 | 0.538 | –
[2], 323.15 K, x2 = 0.527 | 0.6 | –
[2], 323.15 K, x2 = 0.5431 | 0.611 | –
[2], 323.15 K, x2 = 0.6214 | 0.598 | –
[2], 323.15 K, x2 = 0.7499 | 0.548 | –
[2], 323.15 K, x2 = 0.8707 | 0.413 | –
